Results taken from patent US8449898B2 (priority 2007, dated 2013).
Like-named read-outs stand apart in the source and are kept apart here.

Key:
[1] = system: Pseudoperonospora cubensis (the causal agent of cucumber downy mildew); experiment: Test B: cucumber downy mildew, preventive spray on cucumber seedlings; type: in vivo; conditions: Pseudoperonospora cubensis
[2] = system: Phytophthora infestans (the causal agent of tomato late blight); experiment: whole plant or invertebrate; type: in vivo; conditions: Phytophthora infestans

Compound: Cc1cc(C(F)(F)F)nn1CC(=O)N1CCC(c2nc(C3=NOC(c4ccccc4)C3)cs2)CC1 (centres unmarked) [Compound 1, 4-[4-[4,5-dihydro-5-phenyl-3-isoxazolyl]-2-thiazolyl]-1-[[5-methyl-3-(trifluoromethyl)-1H-pyrazol-1-yl]acetyl]piperidine]
- pest or weed control at 0.025 ppm ([1]; Compound 1 alone 0.025 ppm, Table H evaluation set, rating 100 = 100% disease control, read-out: CDM Obsd): 33%
- pest or weed control at 0.025 ppm ([1]; Compound 1 alone 0.025 ppm, Table I evaluation set, read-out: CDM Obsd): 47%
- pest or weed control at 0.025 ppm ([1]; Compound 1 alone 0.025 ppm, Table J evaluation set, read-out: CDM Obsd): 47%
- pest or weed control at 0.025 ppm ([1]; Compound 1 alone 0.025 ppm, Table K evaluation set, read-out: CDM Obsd): 76%
- pest or weed control at 0.025 ppm ([1]; Compound 1 alone 0.025 ppm, Table L evaluation set, read-out: CDM Obsd): 51%
- pest or weed control at 0.05 ppm ([1]; Compound 1 alone 0.05 ppm, Table H evaluation set, read-out: CDM Obsd): 40%
- pest or weed control at 0.05 ppm ([1]; Compound 1 alone 0.05 ppm, Table I evaluation set, read-out: CDM Obsd): 47%
- pest or weed control at 0.05 ppm ([1]; Compound 1 alone 0.05 ppm, Table J evaluation set, read-out: CDM Obsd): 47%
- pest or weed control at 0.05 ppm ([1]; Compound 1 alone 0.05 ppm, Table K evaluation set, read-out: CDM Obsd): 92%
- pest or weed control at 0.05 ppm ([1]; Compound 1 alone 0.05 ppm, Table L evaluation set, read-out: CDM Obsd): 51%
- pest or weed control at 0.075 ppm ([1]; Compound 1 alone 0.075 ppm, Table H evaluation set, read-out: CDM Obsd): 40%
- pest or weed control at 0.075 ppm ([1]; Compound 1 alone 0.075 ppm, Table I evaluation set, read-out: CDM Obsd): 47%
- pest or weed control at 0.075 ppm ([1]; Compound 1 alone 0.075 ppm, Table J evaluation set, read-out: CDM Obsd): 47%
- pest or weed control at 0.075 ppm ([1]; Compound 1 alone 0.075 ppm, Table K evaluation set, read-out: CDM Obsd): 89%
- pest or weed control at 0.075 ppm ([1]; Compound 1 alone 0.075 ppm, Table L evaluation set, read-out: CDM Obsd): 51%
- pest or weed control at 0.1 ppm ([1]; Compound 1 alone 0.1 ppm, Table H evaluation set, read-out: CDM Obsd): 76%
- pest or weed control at 0.1 ppm ([1]; Compound 1 alone 0.1 ppm, Table I evaluation set, read-out: CDM Obsd): 57%
- pest or weed control at 0.1 ppm ([1]; Compound 1 alone 0.1 ppm, Table J evaluation set, read-out: CDM Obsd): 47%
- pest or weed control at 0.1 ppm ([1]; Compound 1 alone 0.1 ppm, Table K evaluation set, read-out: CDM Obsd): 98%
- pest or weed control at 0.1 ppm ([1]; Compound 1 alone 0.1 ppm, Table L evaluation set, read-out: CDM Obsd): 98%
- pest or weed control at 0.125 ppm ([1]; Compound 1 alone 0.125 ppm, Table H evaluation set, read-out: CDM Obsd): 81%
- pest or weed control at 0.125 ppm ([1]; Compound 1 alone 0.125 ppm, Table I evaluation set, read-out: CDM Obsd): 57%
- pest or weed control at 0.125 ppm ([1]; Compound 1 alone 0.125 ppm, Table J evaluation set, read-out: CDM Obsd): 47%
- pest or weed control at 0.125 ppm ([1]; Compound 1 alone 0.125 ppm, Table K evaluation set, read-out: CDM Obsd): 99%
- pest or weed control at 0.125 ppm ([1]; Compound 1 alone 0.125 ppm, Table L evaluation set, read-out: CDM Obsd): 81%
- pest or weed control at 0.05 ppm ([1]; Table A, Compound 1 alone 0.05 ppm, read-out: CDM Obsd (disease control rating)): 88%
- pest or weed control at 0.1 ppm ([1]; Table A, Compound 1 alone 0.1 ppm, read-out: CDM Obsd (disease control rating)): 95%
- pest or weed control at 0.15 ppm ([1]; Table A, Compound 1 alone 0.15 ppm, read-out: CDM Obsd (disease control rating)): 100%
- pest or weed control at 0.2 ppm ([1]; Table A, Compound 1 alone 0.2 ppm, read-out: CDM Obsd (disease control rating)): 100%
- pest or weed control at 1 ppm ([1]; Table A, Compound 1 alone 1 ppm, read-out: CDM Obsd (disease control rating)): 100%
- pest or weed control at 0.05 ppm ([1]; Table B, Compound 1 alone 0.05 ppm, read-out: CDM Obsd (disease control rating)): 64%
- pest or weed control at 0.1 ppm ([1]; Table B, Compound 1 alone 0.1 ppm, read-out: CDM Obsd (disease control rating)): 86%
- pest or weed control at 0.15 ppm ([1]; Table B, Compound 1 alone 0.15 ppm, read-out: CDM Obsd (disease control rating)): 85%
- pest or weed control at 0.2 ppm ([1]; Table B, Compound 1 alone 0.2 ppm, read-out: CDM Obsd (disease control rating)): 92%
- pest or weed control at 1 ppm ([1]; Table B, Compound 1 alone 1 ppm, read-out: CDM Obsd (disease control rating)): 100%
- pest or weed control at 0.05 ppm ([1]; Table C, Compound 1 alone 0.05 ppm, read-out: CDM Obsd (disease control rating)): 77%
- pest or weed control at 0.1 ppm ([1]; Table C, Compound 1 alone 0.1 ppm, read-out: CDM Obsd (disease control rating)): 86%
- pest or weed control at 0.15 ppm ([1]; Table C, Compound 1 alone 0.15 ppm, read-out: CDM Obsd (disease control rating)): 95%
- pest or weed control at 0.2 ppm ([1]; Table C, Compound 1 alone 0.2 ppm, read-out: CDM Obsd (disease control rating)): 100%
- pest or weed control at 1 ppm ([1]; Table C, Compound 1 alone 1 ppm, read-out: CDM Obsd (disease control rating)): 100%
- pest or weed control at 0.05 ppm ([1]; Table D, Compound 1 alone at 0.05 ppm, read-out: CDM Obsd): 64%
- pest or weed control at 0.1 ppm ([1]; Table D, Compound 1 alone at 0.1 ppm, read-out: CDM Obsd): 77%
- pest or weed control at 0.15 ppm ([1]; Table D, Compound 1 alone at 0.15 ppm, read-out: CDM Obsd): 86%
- pest or weed control at 0.2 ppm ([1]; Table D, Compound 1 alone at 0.2 ppm, read-out: CDM Obsd): 93%
- pest or weed control at 1 ppm ([1]; Table D, Compound 1 alone at 1 ppm, read-out: CDM Obsd): 100%
- pest or weed control at 0.025 ppm ([1]; Table F, Compound 1 alone at 0.025 ppm, read-out: CDM Obsd): 40%
- pest or weed control at 0.05 ppm ([1]; Table F, Compound 1 alone at 0.05 ppm, read-out: CDM Obsd): 68%
- pest or weed control at 0.075 ppm ([1]; Table F, Compound 1 alone at 0.075 ppm, read-out: CDM Obsd): 39%
- pest or weed control at 0.1 ppm ([1]; Table F, Compound 1 alone at 0.1 ppm, read-out: CDM Obsd): 47%
- pest or weed control at 0.125 ppm ([1]; Table F, Compound 1 alone at 0.125 ppm, read-out: CDM Obsd): 58%
- pest or weed control at 0.025 ppm ([1]; Table G, Compound 1 alone at 0.025 ppm, read-out: CDM Obsd): 26%
- pest or weed control at 0.05 ppm ([1]; Table G, Compound 1 alone at 0.05 ppm, read-out: CDM Obsd): 26%
- pest or weed control at 0.075 ppm ([1]; Table G, Compound 1 alone at 0.075 ppm, read-out: CDM Obsd): 47%
- pest or weed control at 0.1 ppm ([1]; Table G, Compound 1 alone at 0.1 ppm, read-out: CDM Obsd): 47%
- pest or weed control at 0.125 ppm ([1]; Table G, Compound 1 alone at 0.125 ppm, read-out: CDM Obsd): 68%
- pest or weed control at 0.05 ppm ([2]; read-out: TLB Obsd (disease control rating), Table A, Compound 1 alone 0.05 ppm): 34%
- pest or weed control at 0.1 ppm ([2]; read-out: TLB Obsd (disease control rating), Table A, Compound 1 alone 0.1 ppm): 78%
- pest or weed control at 0.15 ppm ([2]; read-out: TLB Obsd (disease control rating), Table A, Compound 1 alone 0.15 ppm): 97%
- pest or weed control at 0.2 ppm ([2]; read-out: TLB Obsd (disease control rating), Table A, Compound 1 alone 0.2 ppm): 94%
- pest or weed control at 1 ppm ([2]; read-out: TLB Obsd (disease control rating), Table A, Compound 1 alone 1 ppm): 100%
- pest or weed control at 0.05 ppm ([2]; read-out: TLB Obsd (disease control rating), Table B, Compound 1 alone 0.05 ppm): 26%
- pest or weed control at 0.1 ppm ([2]; read-out: TLB Obsd (disease control rating), Table B, Compound 1 alone 0.1 ppm): 53%
- pest or weed control at 0.15 ppm ([2]; read-out: TLB Obsd (disease control rating), Table B, Compound 1 alone 0.15 ppm): 59%
- pest or weed control at 0.2 ppm ([2]; read-out: TLB Obsd (disease control rating), Table B, Compound 1 alone 0.2 ppm): 56%
- pest or weed control at 1 ppm ([2]; read-out: TLB Obsd (disease control rating), Table B, Compound 1 alone 1 ppm): 100%
- pest or weed control at 0.05 ppm ([2]; read-out: TLB Obsd (disease control rating), Table C, Compound 1 alone 0.05 ppm): 17%
- pest or weed control at 0.1 ppm ([2]; read-out: TLB Obsd (disease control rating), Table C, Compound 1 alone 0.1 ppm): 17%
- pest or weed control at 0.15 ppm ([2]; read-out: TLB Obsd (disease control rating), Table C, Compound 1 alone 0.15 ppm): 57%
- pest or weed control at 0.2 ppm ([2]; read-out: TLB Obsd (disease control rating), Table C, Compound 1 alone 0.2 ppm): 51%
- pest or weed control at 1 ppm ([2]; read-out: TLB Obsd (disease control rating), Table C, Compound 1 alone 1 ppm): 99%
- pest or weed control at 0.05 ppm ([2]; read-out: TLB Obsd, Table D, Compound 1 alone at 0.05 ppm): 32%
- pest or weed control at 0.1 ppm ([2]; read-out: TLB Obsd, Table D, Compound 1 alone at 0.1 ppm): 52%
- pest or weed control at 0.15 ppm ([2]; read-out: TLB Obsd, Table D, Compound 1 alone at 0.15 ppm): 90%
- pest or weed control at 0.2 ppm ([2]; read-out: TLB Obsd, Table D, Compound 1 alone at 0.2 ppm): 67%
- pest or weed control at 1 ppm ([2]; read-out: TLB Obsd, Table D, Compound 1 alone at 1 ppm): 100%
- pest or weed control at 0.05 ppm ([2]; read-out: TLB Obsd, Table E, Compound 1 alone at 0.05 ppm): 33%
- pest or weed control at 0.1 ppm ([2]; read-out: TLB Obsd, Table E, Compound 1 alone at 0.1 ppm): 75%
- pest or weed control at 0.15 ppm ([2]; read-out: TLB Obsd, Table E, Compound 1 alone at 0.15 ppm): 92%
- pest or weed control at 0.2 ppm ([2]; read-out: TLB Obsd, Table E, Compound 1 alone at 0.2 ppm): 90%
- pest or weed control at 1 ppm ([2]; read-out: TLB Obsd, Table E, Compound 1 alone at 1 ppm): 100%
